Source: patent US7569537B2, “Peptide antagonists for inhibiting heat shock protein (Hsp 16.3) of Mycobacterium tuberculosis” (priority 2004, dated 2009)
No end group written: not given here.

How the values were obtained:
[1] = biological target: T1, Hsp16.3 (Mycobacterium tuberculosis, UniProt P9WMK1); assay: ADH heat aggregation assay for inhibition of Hsp16.3 chaperon activity; assay type: biochemical
Procedure: FIG. 2. […] Aggregation assays were performed by heating 5 μM Alcohol dehydrogenase (ADH) to 50° C. directly in a spectrophotometer using a thermostated cuvette holder in a total reaction volume of 500 μl. Optical density was monitored at 360 nm for 1200 seconds and readings were taken at every 100 seconds interval. […] Then the same experiment was performed in the presence of increasing concentrations of the Hsp16.3 binding peptide Seq IDs 10. Aggregation of ADH in the absence of Hsp 16.3 (black triangle). Aggregation in the presence of Hsp 16.3 (black circle). The same experiment when performed in the presence of increasing concentrations of the Hsp 16.3 binding peptide (Seq ID 10) 25 μM (white square), 50 μM (black square), 100 μM (white triangle). Only peptide control (ADH+100 μM peptide) (white circle).
The binding of a peptide need not necessarily result in inhibition. Inhibition will happen only if binding leads to significant changes in the active site. […] A part of the invention is the development of a peptide inhibition assay for Hsp16.3. The method is based on aggregation based assays. The standard assay used for assaying the activity of alpha-crystallin like proteins is to study the protection it confers against heat induced aggregation of proteins, the aggregation activity being measured spectrophotometrically. […] Aggregation of 5 μM ADH at 50° C. can be measured as an apparent optical density at 360 nm using a spectrophotometer equipped with a thermostated cuvette holder in a total reaction volume of 500 μl. The chaperon activity of Hsp16.3 can be determined by mixing ADH with Hsp16.3 at a molar ratio of 5:4 which is equivalent to a ratio of about 12:1 between ADH and Hsp16.3 assuming a nonameric structure of Hsp16.3 as the functional unit (Chang et al., 1996) and aggregation rates again determined spectrophotometrically. […]
A part of the invention is the peptide inhibition assay for Hsp16.3 comprising of heat treating ADH alone, ADH+Hsp16.3 and ADH+Hsp16.3+25, 50 and 100 μM peptide. […] Aggregation of 5 μM ADH at 50° C. was measured as an apparent optical density at 360 nm using Hitachi spectrophotometer equipped with a thermostated cuvette holder in a total reaction volume of 500 μl. The chaperon activity of Hsp16.3 was determined by mixing ADH with Hsp16.3 at a molar ratio of 5:4 and aggregation rates were again determined spectrophotometrically. […]
Aggregation assays were performed by heating 5 μM Alcohol dehydrogenase (ADH) to 50° C. directly in a spectrophotometer using a thermostated cuvette holder in a total reaction volume of 500 μl. Absorbance was monitored at 360 nm (A360) for 1200 seconds and readings were taken at every 100 seconds interval. […] The increase in absorbance indicates aggregation of ADH. […]

[2] = biological target: T1, Hsp16.3; assay: NMR (TOCSY) amide proton chemical shifts of peptide free and with Hsp16.3; assay type: binding; settings: 0.1 mM protein, 2 mM peptide, pH 7.0, 4 °C
Procedure: FIG. 5. Comparison of chemical shifts of amide protons of free peptide (Seq ID 10) (a) and peptide with Hsp16.3 protein (b). Resonance assignments are indicated with a one-letter amino acid code. All NMR spectra were taken in a Bruker DRX-500 spectrometer equipped with a Z-field gradient probe. All measurements were done in high precision 5-mm NMR tubes in 20 mM sodium phosphate buffer, pH 7.0, containing 250 mM NaCl in 90% H2O and 10% D2O at 4° C. TOCSY spectra were measured using standard pulse sequences in the Bruker pulse library using WATERGATE water suppression method. Standard Bruker software (Xwin-NMR version 1.3) was used to acquire and process the NMR data. The NMR samples were adjusted to a protein concentration of 0.1 mM and a 20-fold ligand excess (2 mM) over binding sites was used throughout the studies.
An important aspect of inhibitor development procedures is to understand the nature of interactions between the inhibitor and its target. […] As a part of this disclosure it is shown that histidine residues in one of the two peptide inhibitors namely Seq ID 10 interact with Hsp16.3 as determined by NMR.
All NMR spectra were taken in a Bruker DRX-500 NMR spectrometer equipped with a Z-field gradient probe. […] TOCSY spectra were measured using standard pulse sequences in the Bruker pulse library using WATERGATE water suppression method. […]

[3] = biological target: T2, human alphaB-crystallin (Homo sapiens, UniProt P02511); assay: ADH heat aggregation assay with alphaB-crystallin instead of Hsp16.3; assay type: biochemical; settings: 25, 50 and 100 μM peptide, ADH:alphaB-crystallin 5:4
T2 construct: made in house
T2 sequence (P02511 1-175): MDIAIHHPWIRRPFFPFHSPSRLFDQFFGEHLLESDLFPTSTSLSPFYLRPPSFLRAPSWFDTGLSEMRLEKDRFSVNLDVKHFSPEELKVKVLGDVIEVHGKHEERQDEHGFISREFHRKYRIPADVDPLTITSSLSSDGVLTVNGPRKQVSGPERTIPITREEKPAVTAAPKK
Procedure: FIG. 3. An example to show the specificity of the inhibitory peptides for Hsp16.3 and not for alphaB-crystallin—a component of human eye lens. A similar assay as described in FIG. 2 was performed using alphaB-crystalline instead of Hsp16.3. The molar ratio between ADH and alphaB-crystallin was maintained 5:4 as in the case of Hsp 16.3. Aggregation in the absence of alphaB-crystallin (black triangle). Aggregation in the presence of alphaB-crystalline (black circle). The same experiment was performed in the presence of increasing concentrations of the Hsp16.3 binding peptide (Seq ID 10) 25 μM (white square), 50 μM (black square), 100 μM (white triangle). Only peptide control (ADH+100 μM peptide) (white circle).
ADH upon being heated to 50° C. aggregates. This aggregation can be completely stopped when Hsp16.3 is added in such a way so as to obtain a molar ratio of ADH to Hsp 16.3 monomer of about 5:4. Incorporation of peptide at a concentration of 100 μM i.e. about 25 fold molar excess leads to significant inhibition of chaperon activity. […] Since it has been shown that Hsp16.3 has functional similarity with human alphaB-crystallin, an eye lens protein (Valdez et al., 2002), therefore the effect of these peptides on human alphaB-crystallin was examined. […] The vector used for expression of this protein was originally generated by Dr. W. C. […]

[4] = biological target: T1, Hsp16.3; settings: reverse phage ELISA, A405, 30 μg/well Hsp16.3 or BSA

T1 sequence (P9WMK1 whole entry, looked up): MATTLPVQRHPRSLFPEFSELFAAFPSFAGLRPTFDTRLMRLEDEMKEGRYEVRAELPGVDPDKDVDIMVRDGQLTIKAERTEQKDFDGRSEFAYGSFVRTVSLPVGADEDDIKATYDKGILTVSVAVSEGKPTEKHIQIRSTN

Row | Substance | IC50 [1] [µM] | binding of phage clone to Hsp16.3 compared to non-specific control BSA (background binding) [4] | also measured
1 | H-KMHATNHGGGS-NH2 [Seq ID 10] | ~50 | – | inhibition of chaperon activity of Hsp16.3 (in words) ([1]; 25, 50 and 100 μM peptide): dose dependent inhibition; effect of peptide alone on aggregation of ADH (control without Hsp16.3) ([1]; ADH + 100 μM peptide, no Hsp16.3): does not influence the aggregation of ADH; chemical shift change of peptide amide protons on addition of Hsp16.3 [2]: significant chemical shift occured in both histidines; inhibition of chaperon activity of alphaB-crystallin (in words) [3]: no inhibition
2 | H-YPHHFKHRHIPIGGGS-NH2 [Seq ID 22] | ~50 | – | –
3 | KMHATNH [Seq ID 9] | – | about three-fold | –
4 | YPHHFKHRHIPI [Seq ID 21] | – | about three-fold | –
